{
  "source": "patent US20080039328A1",
  "about": "“Post Harvest Control of Genetically Modified Crop Growth Employing D-Amino Acid Compounds” (BASF PLANT SCIENCE GMBH, priority 2004, published 2008)",
  "key": {"[1]": {"system": "non-transgenic Zea mays plants", "assay": "Greenhouse spraying of mixed plantlets on soil with D-isoleucine", "type": "in vivo", "conditions": "sprayed, 10 mM, 20 mM, 30 mM in isotonic salt solution, pH 7.0, soil, green-house", "protocol": "(§1) Transgenic Arabidopsis, Brassica napus, and Zea mays plants are generated as described above using either construct I (SEQ ID NO: 15) or construct II (SEQ ID NO: 16) for Agrobacterium mediated transformation. Transgenic plants are selected using the negative selection marker property of the D-amino acid oxidase on medium comprising 0.3, 3 or 30 mM D-alanine (or D-serine). Resulting transgenic plants are selfed to obtain homozygous plants. Homozygous plants are propagated over 2 to 3 generations to ensure stability of the transgenic insertion.\n(§2) Seeds of transgenic plants are mixed with seeds of the corresponding non-transgenic line (used for transformation). Various proportions of transgenic versus non-transgenic seeds are used (1:1, 1:10, 1:100).\n(§3) Seeds are sown on standard soil under green-house conditions. After germination, developing plantlets were sprayed at various developmental steps with preparations of D-isoleucine (final concentration of 10 mM, 20 mM, 30 mM, respectively in isotonic salt solution, pH 7.0)."}, "[2]": {"system": "non-transgenic Arabidopsis plants", "assay": "Greenhouse spraying of mixed plantlets on soil with D-isoleucine", "type": "in vivo", "conditions": "sprayed, 10 mM, 20 mM, 30 mM in isotonic salt solution, pH 7.0, soil, green-house", "protocol": "as §1, §2, §3"}, "[3]": {"system": "non-transgenic Brassica napus plants", "assay": "Greenhouse spraying of mixed plantlets on soil with D-isoleucine", "type": "in vivo", "conditions": "sprayed, 10 mM, 20 mM, 30 mM in isotonic salt solution, pH 7.0, soil, green-house", "protocol": "as §1, §2, §3"}, "[4]": {"system": "Transgenic Arabidopsis plants (DAAO from Rhodotorula gracilis)", "assay": "Greenhouse spraying of mixed plantlets on soil with D-isoleucine", "type": "in vivo", "conditions": "sprayed, 10 mM, 20 mM, 30 mM in isotonic salt solution, pH 7.0, soil, green-house", "protocol": "as §1, §2, §3"}, "[5]": {"system": "Transgenic Zea mays plants (DAAO from Rhodotorula gracilis)", "assay": "Greenhouse spraying of mixed plantlets on soil with D-isoleucine", "type": "in vivo", "conditions": "sprayed, 10 mM, 20 mM, 30 mM in isotonic salt solution, pH 7.0, soil, green-house", "protocol": "as §1, §2, §3"}, "[6]": {"system": "Transgenic Brassica napus plants (DAAO from Rhodotorula gracilis)", "assay": "Greenhouse spraying of mixed plantlets on soil with D-isoleucine", "type": "in vivo", "conditions": "sprayed, 10 mM, 20 mM, 30 mM in isotonic salt solution, pH 7.0, soil, green-house", "protocol": "as §1, §2, §3"}, "[7]": {"system": "wild-type Arabidopsis thaliana", "assay": "Growth of wild-type A. thaliana plantlets on medium with D-amino acids", "type": "in vivo", "protocol": "Wild type Arabidopsis thaliana plantlets were grown on half-concentrated Murashige-Skoog medium (0.5% (wt/vol) sucrose, 0.8% (wt/vol) agar) supplemented with the indicated D-amino acid at either 3 mM (Panel A) or 30 mM (Panel B).\n(§4) FIG. 4 D-amino acid dose responses of dao1 transgenic and wild-type A. thaliana. (a-d) Growth of dao1 transgenic line 3:7 (white), 10:7 (light gray), 13:4 (gray) and wild-type (black) plants, in fresh weight per plant, on media containing various concentrations of D-serine, D-alanine, D-isoleucine and D-valine in half-strength MS with 0.5% (wt/vol) sucrose and 0.8% (wt/vol) agar. Different concentration ranges were used for different ID-amino acids. The plants were grown for 10 d after germination under 16 h photoperiods at 24° C.; n=10±s.e.m., except for plants grown on D-isoleucine, where smaller Petri dishes were used, (n=6±s.e.m.).\n(§5) T1 seeds of transgenic Arabidopsis plants were surface-sterilized and sown in Petri plates that were sealed with gas-permeable tape. The growth medium was half strength MS19 with 0.5% (wt/vol) sucrose and 0.8% (wt/vol) agar, plus 3 mM D-alanine, 3 mM D-serine or 50 μg/ml kanamycin as the selective agent. Plants were grown for 5 d after germination with a 16 h photoperiod at 24° C. To evaluate the selection efficiency on different substrates, 2,074, 1,914 and 1,810 T1 seeds were sown on D-alanine-, D-serine- and kanamycin-selective plates, respectively, and the number of surviving seedlings was counted (44, 32 and 43, respectively)."}, "[8]": {"system": "dao1 transgenic A. thaliana", "assay": "Growth of dao1 (DAAO) transgenic A. thaliana on medium with D-amino acids", "type": "in vivo, Arabidopsis thaliana", "protocol": "as §4, §5\nThe T-DNA contained both 35S:dao1 and pNos:nptII, allowing D-amino acid and kanamycin selection to be compared in the same lot of seeds.\nTherefore, plants containing the construct were tested as described above on two sets of media, one containing D-isoleucine and the other containing D-valine at various concentrations, to assess whether DAAO could also be used as a counter-selection marker. Unambiguous counter-selection selection was achieved when seeds were sown on either D-isoleucine or D-valine at concentrations greater than 10 mM (FIG. 4 c,d)."}, "[9]": {"target": "T1, DAAO (Rhodotorula toruloides, UniProt P80324)", "T1 construct": "expressed in transfected cells; host or cells: Arabidopsis thaliana (Col-0), dao1 transgenic line 10:7, transformed with pPCV702:dao1 (CaMV 35S); crude soluble protein extract", "T1 sequence (P80324 25-368)": "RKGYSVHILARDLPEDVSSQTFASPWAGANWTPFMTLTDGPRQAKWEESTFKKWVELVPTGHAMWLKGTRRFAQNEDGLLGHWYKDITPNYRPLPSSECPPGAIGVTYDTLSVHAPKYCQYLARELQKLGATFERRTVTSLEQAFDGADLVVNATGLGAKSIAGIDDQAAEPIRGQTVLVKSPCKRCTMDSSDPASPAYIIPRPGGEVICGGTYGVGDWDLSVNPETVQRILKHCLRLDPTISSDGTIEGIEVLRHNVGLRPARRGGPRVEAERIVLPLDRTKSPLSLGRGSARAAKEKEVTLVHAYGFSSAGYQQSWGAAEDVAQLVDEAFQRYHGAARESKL", "assay": "DAAO incubation of cell-free plant extracts, keto acid production by HPLC", "type": "biochemical, Rhodotorula gracilis", "conditions": "cell-free extracts from dao1 transgenic line 10:7", "protocol": "Soluble proteins were extracted by shaking 0.1 g samples of plant material that had been finely pulverized in a 1.5 ml Eppendorf tube in 1 ml of 0.1 M potassium phosphate buffer, pH 8. DAAO activity was then assayed as follows. Reaction mixtures were prepared containing 2,120 μl of 0.1 M potassium phosphate buffer, pH 8, 80 μl of crude protein extract and 100 μl of 0.3 M D-alanine. The samples were incubated for 2 h at 30° C. The enzyme activity was then assessed, by measuring the increase in absorbance at 220 nm (E=1.090 M^−1 cm^−1) associated with the conversion of D-alanine to pyruvate, after transferring the test tubes to boiling water for […] to stop the reaction. In control reactions, D-alanine was added immediately before boiling. One unit of DAAO activity is defined as the turnover of one micromole of substrate per minute, and activity was expressed per gram plant biomass (fresh weight). The breakdown of D-isoleucine and D-valine in DAAO incubations, and the associated production of 3-methyl-2-oxopentanoate and 3-methyl-2-oxobutanoate, were analyzed by high-performance liquid chromatography. In other respects the reactions were carried out as described above.\nPresumably endogenous transaminase may be specific for the L-enantiomer, so the corresponding D-enantiomer is not metabolized in wildtype plants, but only in plants expressing DAAO. […]"}, "[10]": {"conditions": "various concentrations in half-strength MS, 10 d after germination"}},
  "note": "Entries after “also recorded” stand apart in the source; their conditions may differ.",
  "data": [
    {"smiles": "CC[C@@H](C)[C@@H](N)C(=O)O", "note": "[D-isoleucine]", "values": [
      {"measurement": "Effect of the treatment on non-transgenic plants", "setting": "[1]", "value": "unaffected"},
      {"measurement": "Effect of the treatment on non-transgenic plants", "setting": "[2]", "value": "unaffected"},
      {"measurement": "Effect of the treatment on non-transgenic plants", "setting": "[3]", "value": "unaffected"},
      {"measurement": "Transgenic plants able to reach maturity", "setting": "[4]", "value": "None"},
      {"measurement": "Transgenic plants able to reach maturity", "setting": "[5]", "value": "None"},
      {"measurement": "Transgenic plants able to reach maturity", "setting": "[6]", "value": "None"},
      {"measurement": "Effect on plant growth (FIG. 3)", "setting": "[7]; 3 mM or 30 mM in half-concentrated Murashige-Skoog medium, wild type plantlets", "value": "no significant effects"},
      {"measurement": "Response of wild-type plants (compared with DAAO lines)", "setting": "[7]; in vivo", "value": "grew well, with no sign of toxicity"},
      {"measurement": "Effect on wild-type plantlets (FIG. 2)", "setting": "[7]; treated with 30 mM", "value": "no severe damage"},
      {"measurement": "Growth of wild-type plants (FIG. 4)", "setting": "[7]; [10]", "value": "not toxic; also recorded: minor effects; also recorded: not the wild-type plants"},
      {"measurement": "Response of thirteen individual lines expressing DAAO", "setting": "[8]; in vivo", "value": "effectively killed"},
      {"measurement": "Effect on transgenic plantlets comprising DAAO gene (FIG. 2)", "setting": "[8]; treated with 30 mM", "value": "toxic effect"},
      {"measurement": "Growth of plants expressing DAAO (FIG. 4)", "setting": "[8]; [10]", "value": "strong negative influence on the growth; also recorded: inhibit growth"},
      {"measurement": "Increase in production of 3-methyl-2-oxopentanoate compared to extracts of wild-type plants", "setting": "[9]", "value": 15, "unit": "fold"}
    ]}
  ]
}
